Measured values taken from patent US8329899B2, “Pyrazole compounds that modulate HSP90 activity” (Synta Pharmaceuticals, Corp., priority 2005, dated 2012).

System: Her2
Test: Degradation of Her2 in BT-474 cells, Method 1 (Western blot)
Type: cell-based, Human
Conditions: 0.5 μM, overnight
Experimental: Human high-Her2 breast carcinoma BT474 (HTB-20), SK-BR-3 (HTB-30) and MCF-7 breast carcinoma (HTB-22) from American Type Culture Collection, Va., USA were grown in Dulbecco's modified Eagle's medium with 4 mM L-glutamine and antibiotics (100 IU/ml penicillin and 100 ug/ml streptomycine; GibcoBRL). To obtain exponential cell growth, cells were trypsinized, counted and seeded at a cell density of 0.5×10^6 cells/ml regularly, every 3 days. All experiments were performed on day 1 after cell passage.
BT-474 cells are treated with 0.5 μM, 2 μM, or 5 μM of 17AAG (a positive control) or 0.5 μM, 2 μM, or 5 μM of a compound of the invention overnight in DMEM medium. After treatment, each cytoplasmic sample is prepared from 1×10^6 cells by incubation of cell lysis buffer (#9803, cell Signaling Technology) on ice for 10 minutes. The resulting supernatant used as the cytosol fractions is dissolved with sample buffer for SDS-PAGE and run on a SDS-PAGE gel, blotted onto a nitrocellulose membrane by using semi-dry transfer. Non-specific binding to nitrocellulose is blocked with 5% skim milk in TBS with 0.5% Tween at room temperature for 1 hour, then probed with anti-Her2/ErB2 mAb (rabbit IgG, #2242, Cell Signaling) and anti-Tubulin (T9026, Sigma) as housekeeping control protein. […]

C=CCNC1=C2C[C@@H](C)C[C@H](OC)[C@H](O)[C@@H](C)/C=C(\C)[C@H](OC(N)=O)[C@@H](OC)/C=C\C=C(/C)C(=O)NC(=CC1=O)C2=O [Compound 17AAG]
degradation of Her2: partial degradation
